ChEMBL document CHEMBL5050861 (2021)
Values after ≈ are worked out from the molar mass of the structure shown.

Experiments:
[1] = Kinetic aqueous solubility of the compound; format: physicochemical; settings: buffer; read-out: Kinetic_solubility
[2] = Inhibition of recombinant mouse GALK1 using ATP as substrate incubated for 1 hr and measured by Kinase-Glo assay; settings: read-out: IC50
[3] = Stability of compound in rat microsomes assessed as half-life; format: ADME, Microsome
[4] = Permeability of compound by PAMPA assay; format: ADME; settings: for Papp: read-out: permeability

| SMILES | solubility kinetic [1] [µg/mL] | IC50 [2] [µM] | half-life [3] [min] | Papp [4] [×10⁻⁶ cm/s] | permeability [4] |
| --- | --- | --- | --- | --- | --- |
| CC1=C(C(=O)Nc2cc(C(=O)O)ccn2)[C@@H](c2ccc(C)cc2Cl)N=C(Nc2nc3ccc(F)cc3o2)N1 | 53.8 (≈ 101 µM) | 6.85 | > 30 | < 1 | – |
| CC1=C(C(=O)Nc2cc(C(=O)O)ccn2)[C@@H](c2ccccc2Cl)N=C(Nc2nc3ccccc3o2)N1 | > 74 | 19.3 | > 30 | < 1 | – |
| CC1=C(C(=O)Nc2cc(C(=O)O)ccn2)[C@H](c2ccc(C)cc2Cl)N=C(Nc2nc3ccc(F)cc3o2)N1 | > 79 | 1.37 | > 30 | < 1 | – |
| COc1ccc([C@@H]2N=C(Nc3nc4cccc(N)c4o3)NC(C)=C2C(=O)Nc2cc(C(=O)O)ccn2)c(Cl)c1 | > 81 | 2.43 | > 30 | < 1 | – |
| CCOC(=O)c1nnc(NC(=O)C2=C(C)NC(Nc3nc4ccccc4o3)=NC2c2ccccc2Cl)s1 (centres undefined) | < 1 | 10.7 | 3.16 | < 2.7 | – |
| CC1=C(C(=O)Nc2cc(-c3nn[nH]n3)ccn2)C(c2ccc(C)cc2Cl)N=C(Nc2nc3ccc(F)cc3o2)N1 (centres undefined) | < 1 | 9.68 | > 30 | < 1 | – |
| CC1=C(C(=O)Nc2nncs2)C2(CCCC2)N=C(Nc2nc3ccccc3o2)N1 | < 1 | 19.3 | > 30 | < 1 | – |
| CC1=C(C(=O)Nc2nncs2)C(c2ccc(Cl)cc2Cl)N=C(Nc2nc3ccccc3o2)N1 (centres undefined) | < 1 | 6.11 | > 30 | < 4.9 | – |
| CC1=C(C(=O)Nc2ccc(C(=O)O)nc2)C(c2ccccc2Cl)N=C(Nc2nc3ccccc3o2)N1 (centres undefined) | 24.6 (≈ 48.9 µM) | 9.68 | > 30 | < 1 | – |
| CCOc1ccc(C2N=C(Nc3nc4ccc(F)cc4o3)NC(C)=C2C(=O)Nc2cc(C(=O)O)ccn2)c(Cl)c1 (centres undefined) | 11.3 (≈ 20 µM) | 3.85 | > 30 | < 1 | – |
| COP(=O)(OC)C1=C(C)NC(Nc2nc3ccccc3o2)=NC1c1ccccc1Cl (centres undefined) | 12.2 (≈ 27.3 µM) | 13.7 | 5.35 | – | 1813.86 10^-6 cm/s |
| CC1=C(C(=O)Nc2cc(C(=O)O)ccn2)C(c2ccc(-n3cccn3)cc2Cl)N=C(Nc2nc3ccc(F)cc3o2)N1 (centres undefined) | > 87 | 3.43 | > 30 | < 1 | – |
| CC1=C(C(=O)Nc2cc(C(=O)O)ccn2)C(c2ccc(C)cc2Cl)N=C(Nc2nc3c(o2)CCCC3)N1 (centres undefined) | > 52 | 4.32 | > 30 | < 1.8 | – |
| CC1=C(C(=O)Nc2nnc(-c3cccnc3)s2)C(c2ccccc2Cl)N=C(Nc2nc3ccc(F)cc3o2)N1 (centres undefined) | < 1 | 38.5 | > 30 | < 9.9 | – |
| CC1=C(C(=O)Nc2ccc(C#N)cn2)C(c2ccccc2Cl)N=C(Nc2nc3ccc(F)cc3o2)N1 (centres undefined) | < 1 | 13.7 | > 30 | < 7.8 | – |
| CC1=C(C(=O)Nc2cccc(-c3cn[nH]c3)c2)C(c2ccccc2Cl)N=C(Nc2nc3ccccc3o2)N1 (centres undefined) | < 1 | 38.5 | > 30 | < 25.4 | – |
| CC1=C(C(=O)Nc2nnc(-c3cccnc3)s2)C(c2ccccc2Cl)N=C(Nc2nc3cc(Cl)ccc3o2)N1 (centres undefined) | < 1 | 19.3 | > 30 | < 3.4 | – |
| CC1=C(C(=O)Nc2nnc(-c3cccnc3)s2)C(c2ccccc2Cl)N=C(Nc2nc3ccccc3o2)N1 (centres undefined) | < 1 | 9.68 | > 30 | < 3.7 | – |

| SMILES | solubility kinetic [1] [µg/mL] | IC50 [2] [µM] | half-life [3] [min] | Papp [4] [×10⁻⁶ cm/s] | permeability [4] |
| --- | --- | --- | --- | --- | --- |
| CC1=C(C(=O)Nc2ccc([N+](=O)[O-])cc2)C(c2ccccc2Cl)N=C(Nc2nc3ccccc3o2)N1 (centres undefined) | < 1 | 3.43 | > 30 | < 7.3 | – |
| CC1=C(C(=O)Nc2cc(C(=O)O)ccn2)C(c2ccc(-c3ccc(C(F)(F)F)nc3)cc2Cl)N=C(Nc2nc3ccc(F)cc3o2)N1 (centres undefined) | 28.6 (≈ 42.9 µM) | 3.85 | > 30 | < 1 | – |
| CC1=C(C(=O)Nc2cc(B(O)O)ccn2)C(c2ccc(C)cc2Cl)N=C(Nc2nc3ccc(F)cc3o2)N1 (centres undefined) | < 1 | 10.9 | 14.1 | < 3.2 | – |
| O=C1CC(C(=O)N2CCNCC2)CC2=C1C(c1ccccc1Cl)N=C(Nc1nc3ccccc3o1)N2 (centres undefined) | 23.9 (≈ 47.3 µM) | 7.69 | 30 | < 4.7 | – |
| COc1ccc2nc(NC3=NC(c4ccccc4Cl)C(C(=O)Nc4nnc(-c5cccnc5)s4)=C(C)N3)oc2c1 (centres undefined) | < 1 | 21.7 | > 30 | < 4.4 | – |
| CC1=C(C(=O)Nc2cc(C(=O)O)ccn2)C(c2ccc(C(=O)O)cc2Cl)N=C(Nc2nc3ccc(F)cc3o2)N1 (centres undefined) | > 83 | 15.3 | > 30 | < 1 | – |
| CC1=C(C(=O)Nc2cccc(-c3nnn[nH]3)c2)C(c2ccccc2Cl)N=C(Nc2nc3ccccc3o2)N1 (centres undefined) | 47.5 (≈ 90.3 µM) | 34.4 | > 30 | 5 | – |
| CC1=C(C(=O)Nc2ccc(C#N)cc2)C(c2ccccc2Cl)N=C(Nc2nc3ccccc3o2)N1 (centres undefined) | < 1 | 13.7 | 25.3 | < 18.7 | – |
| CC1=C(C(=O)Nc2cc(C(=O)O)ccn2)C(c2ccc(-c3ccccc3)cc2Cl)N=C(Nc2nc3ccc(F)cc3o2)N1 (centres undefined) | < 1 | – | > 30 | < 4.9 | – |
| CC1=C(C(=O)Nc2cc(C(=O)O)ccn2)C(c2ccc(-c3ccc(C)nc3)cc2Cl)N=C(Nc2nc3ccc(F)cc3o2)N1 (centres undefined) | > 90 | 1.22 | > 30 | < 1 | – |
| CC1=C(C(=O)Nc2nnc(-c3cccnc3)s2)C(c2ccccc2Cl)N=C(Nc2nc3cc(F)ccc3o2)N1 (centres undefined) | < 1 | 19.3 | > 30 | < 1.5 | – |
| CC1=C(C(=O)Nc2cc(C(=O)O)ccn2)C(c2ccccc2Cl)N=C(Nc2nc3ccccc3o2)N1C(=O)c1ccccc1 (centres undefined) | 73.9 (≈ 122 µM) | 7.69 | > 30 | < 1 | – |
| CC1=C(C(=O)Nc2cc(C(=O)O)ccn2)[C@@H](c2ccccc2Cl)N=C(Nc2nc3ccc(F)cc3o2)N1 | 17.3 (≈ 33.2 µM) | 13.7 | > 30 | < 1 | – |
| CC1=C(C(=O)Nc2cc(C(=O)O)ccn2)[C@H](c2ccccc2Cl)N=C(Nc2nc3ccccc3o2)N1 | > 74 | 3.43 | > 30 | < 1 | – |
| COC(=O)c1ccnc(NC(=O)C2=C(C)NC(Nc3nc4ccc(F)cc4o3)=N[C@H]2c2ccccc2Cl)c1 | – | 4.32 | 30.9 | < 21.9 | – |
| CC1=C(C(=O)NCc2ccccc2O)C(c2ccccc2Cl)N=C(Nc2nc3ccccc3o2)N1 (centres undefined) | – | 10.9 | 5.19 | < 19.3 | – |
| COC(=O)c1ccnc(NC(=O)C2=C(C)NC(Nc3nc4ccc(F)cc4o3)=N[C@@H]2c2ccccc2Cl)c1 | – | 86.3 | 24.3 | < 7.4 | – |
| CNCCNC(=O)C1=C(C)NC(Nc2nc3ccc(F)cc3o2)=NC1c1ccccc1Cl (centres undefined) | > 67 | 6.11 | – | > 30 | – |
